From patent US6982348B2, “Aminoethanol derivatives” (Takeda Pharmaceutical Company Limited, priority 2001, dated 2006)
Counter-ions that a name gives are not always drawn.

Structure (SMILES) | melting point [°C]
CC(C)(C)Cc1ccc(C[C@@H](NC(=O)c2cccc3c(Cl)cccc23)[C@@H](O)c2cccc(Cl)c2)cc1 (racemic) [Example 346, 5-chloro-N-[(1RS,2SR)-2-(3-chlorophenyl)-2-hydroxy-1-(4-neopentylbenzyl)ethyl]naphthalene-1-carboxamide] | 168 to 169
CC(C)(C)OC(=O)N[C@H](Cc1cnc(C(F)(F)F)s1)[C@@H](O)c1ccc(F)cc1 (racemic) [Example 168, tert-butyl N-[(1RS,2SR)-2-(4-fluorophenyl)-2-hydroxy-1-[[2-(trifluoromethyl)-1,3-thiazol-5-yl]methyl]ethyl]carbamate] | 137 to 138
COC(=O)c1ccc(COc2ccc([C@@H](O)[C@H](Cc3cccc(OC(F)(F)C(F)F)c3)NC(=O)c3cccc4c3C=CCCC4)cc2)cc1 (racemic) [Example 248, methyl 4-[(4-{(1RS,2SR)-2-[(6,7-dihydro-5H-benzo[a][7]annulen-1-ylcarbonyl)amino]-1-hydroxy-3-[3-(1,1,2,2-tetrafluoroethoxy)phenyl]propyl}phenoxy)methyl]benzoate] | 169 to 170
CC(C)(C)OC(=O)N[C@H](Cc1ccc(CC(F)(F)C(F)(F)F)cc1)[C@@H](O)c1cccc(Cl)c1 (racemic) [Example 372, tert-butyl (1RS,2SR)-2-(3-chlorophenyl)-2-hydroxy-1-[4-(2,2,3,3,3-pentafluoropropyl)benzyl]ethylcarbamate] | 156 to 157
COc1ccc(C[C@@H](NC(=O)C2CCCCC2)[C@@H](O)c2ccc(F)cc2)cc1 (racemic) [Example 150, N-((1RS,2SR)-2-(4-fluorophenyl)-2-hydroxy-1-((4-(methyloxy)phenyl)methyl)ethyl)cyclohexanecarboxamide] | 193 to 194
O=C(CCc1ccccc1)N[C@H](Cc1ccc(C(F)(F)F)cc1)[C@@H](O)c1ccoc1 (racemic) [Example 196, N-((1RS,2SR)-2-(3-furanyl)-2-hydroxy-1-((4-(trifluoromethyl)phenyl)methyl)ethyl)-3-phenylpropanamide] | 134 to 135
O=Cc1ccc(-c2ccc([C@H](O)[C@@H](Cc3cccc(OC(F)(F)C(F)F)c3)NC(=O)c3cccc4c3C=CCCC4)cc2)cc1 (racemic) [Example 299, N-[(1RS,2SR)-2-(4′-formyl[1,1′-biphenyl]-4-yl)-2-hydroxy-1-[3-(1,1,2,2-tetrafluoroethoxy)benzyl]ethyl]-6,7-dihydro-5H-benzo[a]cycloheptene-1-carboxamide] | 174 to 176
O=C(N[C@H](Cc1cccc(OC(F)(F)C(F)F)c1)[C@@H](O)c1ccc(Oc2cccnc2)cc1)c1ccc(F)c2ccccc12 (racemic) [Example 262, 4-fluoro-N-{(1RS,2SR)-2-hydroxy-2-[4-(pyridin-3-yloxy)phenyl]-1-[3-(1,1,2,2-tetrafluoroethoxy)benzyl]ethyl}-1-naphthamide] | 183 to 184
CC(C)Oc1ccc([C@H](O)[C@@H](Cc2cccc(OC(F)(F)C(F)F)c2)NC(=O)c2cccc3c2C=CCCC3)cc1 (racemic) [Example 243, N-{(1RS,2SR)-2-hydroxy-2-(4-isopropoxyphenyl)-1-[3-(1,1,2,2-tetrafluoroethoxy)benzyl]ethyl}-6,7-dihydro-5H-benzo[a][7]annulene-1-carboxamide] | 134 to 135
N#CC(c1ccc([C@H](O)[C@@H](Cc2cccc(OC(F)(F)C(F)F)c2)NC(=O)c2cccc3c2C=CCCC3)cc1)N1CCCCC1 (mixture of isomers) [Example 327, N-[(1RS,2SR)-2-[4-[cyano(piperidino)methyl]phenyl]-2-hydroxy-1-[3-(1,1,2,2-tetrafluoroethoxy)benzyl]ethyl]-6,7-dihydro-5H-benzo[a]cycloheptene-1-carboxamide] | 152 to 154
CC(C)(C)OC(=O)N[C@H](Cc1cccc(OC(F)(F)C(F)F)c1)[C@@H](O)c1ccc(C=O)cc1 (racemic) [Example 325, tert-butyl N-[(1RS,2SR)-2-(4-formylphenyl)-2-hydroxy-1-[3-(1,1,2,2-tetrafluoroethoxy)benzyl]ethyl]carbamate] | 140 to 142
O=C(N[C@H](Cc1cccc(OC(F)(F)C(F)F)c1)[C@@H](O)c1ccc(-c2ccc(Cl)cc2)cc1)c1cccc2c1C=CCCC2 (racemic) [Example 294, N-[(1RS,2SR)-2-(4′-chloro[1,1′-biphenyl]-4-yl)-2-hydroxy-1-[3-(1,1,2,2-tetrafluoroethoxy)benzyl]ethyl]-6,7-dihydro-5H-benzo[a]cycloheptene-1-carboxamide] | 167 to 168
O=C(O)CCC(=O)O[C@H](c1ccc(F)cc1)[C@H](Cc1cccc(OC(F)(F)C(F)F)c1)NC(=O)c1ccc(F)c2ccccc12 (racemic) (as salt: succinate) [Example 388, (1RS,2SR)-2-[(4-fluoro-1-naphthoyl)amino]-1-(4-fluorophenyl)-3-[3-(1,1,2,2-tetrafluoroethoxy)phenyl]propyl hydrogen succinate] | 181 to 182
O=C(N[C@H](Cc1cccc(OC(F)(F)C(F)F)c1)[C@@H](O)c1csc(-c2ccccc2)n1)c1ccc(F)c2ccccc12 (racemic) [Example 362, 4-fluoro-N-{(1RS,2RS)-2-hydroxy-2-(2-phenyl-1,3-thiazol-4-yl)-1-[3-(1,1,2,2-tetrafluoroethoxy)benzyl]ethyl}-1-naphthamide] | 148 to 150

Second part, the compound after the results:

melting point [°C] | Structure (SMILES)
220 to 221 | O=C(N[C@H](Cc1ccc(F)cc1)[C@@H](O)c1ccc(C(F)(F)F)cc1)C1CCCCC1 (racemic) [Example 214, N-((1RS,2SR)-1-((4-fluorophenyl)methyl)-2-hydroxy-2-(4-(trifluoromethyl)phenyl)ethyl)cyclohexanecarboxamide]
139 to 155 | O=C(NC(Cc1ccc(C(F)(F)F)cc1)C(O)c1ccc(F)cc1)C1CCCC1 (racemic) [Example 5, N-[2-(4-fluorophenyl)-2-hydroxy-1-[[4-(trifluoromethyl)phenyl]methyl]ethyl]cyclopentanecarboxamide]
192 to 193 | COc1ccc(C(=O)N[C@H](Cc2ccc(C(F)(F)F)cc2)[C@@H](O)c2ccc(F)cc2)cc1 (racemic) [Example 60, N-((1RS,2SR)-2-(4-fluorophenyl)-2-hydroxy-1-((4-(trifluoromethyl)phenyl)methyl)ethyl)-4-(methyloxy)benzamide]
151 to 152 | O=C(CBr)N[C@H](Cc1ccc(C(F)(F)F)cc1)[C@@H](O)c1ccc(F)cc1 (racemic) [Example 78, 2-bromo-N-((1RS,2SR)-2-(4-fluorophenyl)-2-hydroxy-1-((4-(trifluoromethyl)phenyl)methyl)ethyl)acetamide]
154 to 155 | O=C(N[C@H](Cc1cccc(C(=O)C(F)(F)C(F)F)c1)[C@@H](O)c1ccc(F)cc1)c1cccc2c(Cl)cccc12 (racemic) [Example 350, 5-chloro-N-[(1RS,2SR)-2-(4-fluorophenyl)-2-hydroxy-1-[3-(2,2,3,3-tetrafluoropropionyl)benzyl]ethyl]naphthalene-1-carboxamide]
133 to 134 | O=C(NC(Cc1ccc(C(F)(F)F)cc1)C(O)c1ccc(F)cc1)c1ccccc1-c1ccccc1 (racemic) [Example 10, N-[2-(4-fluorophenyl)-2-hydroxy-1-[[4-(trifluoromethyl)phenyl]methyl]ethyl]-2-phenylbenzamide]
